Source: patent publication US8835605B2, “Uses of cancer-targeting peptides in cancer diagnosis” (Academia Sinica, priority 2009, dated 2014)

Columns and labels:
[1] = test system: BT483 breast cancer xenografts; experiment: In vivo binding (homing) of test phages to breast cancer xenografts, phage recovery from tissues; design: species or system SCID mice; settings: heart, lung; for recovery rates of phage from tumor tissues compared with normal organs: 10^9 pfu i.v., tumor vs brain, FIG. 1
Description: SCID mice were injected subcutaneously (s.c.) in the dorsolateral flank with 1×10^7 BT483 cells to induce breast cancer xenografts. The mice bearing xenograft tumors at a size of around 300 mm^3 were administered intravenously (i.v.) with one of the five test phages mentioned in Example 1 above (10^9 pfu) or a control phage. After perfusion, xenograft tumors and organs (i.e., brain, heart, and lung) were removed from each mouse and homogenized. The phages bound to each tissue sample were eluted, recovered using ER2738 bacterial cells as the host, and titered on IPTG/X-Gal agar plates, following the methods described in Lee et al., Cancer Res. 67:10958-10965 (2007) and Lo et al., Mol. Cancer. Ther 7:579-589 (2008).

[2] = test system: breast tumor xenografts (PC90 binding); experiment: In vivo competition: peptide co-injected with PC90, immunostaining of tumor tissues; design: species or system mice; settings: 100 μg peptide co-injected with PC90
Description: SP90 was co-administered to test its ability of blocking PC90 from binding to the tumor tissues. Briefly, 100 μg SP90 or the control peptides described above were co-injected with PC90 to mice bearing breast tumor xenografts. The normal organs and tumor tissues were removed and fixed in Bouin's solution (Sigma, Mo., USA). After fixation, the samples were embedded in paraffin blocks, sliced to sections, and the sections were deparaffinized, rehydrated, and subjected to immunostaining using the mouse anti-M13 mAb described in Example 1 above.

[3] = test system: cancer cells in the tissue samples (PC90 binding); experiment: Peptide competition assay on cancer tissue samples; design: species or system human; settings: peptide 100 ng/ml with PC90 10^9 pfu
Description: (§1) Fresh breast cancer tissue samples were obtained from twenty patients having mammary infiltrating ducal carcinoma. Each of the tissue samples was sliced to 4 μm and fixed in 1% paraformaldehyde. The sliced tissue samples were then incubated with PC90 or a control phage. After being washed by PBS containing […] (PBST0.1), the samples were incubated with an anti-M13 mouse mAb (Amersham Biosciences, Piscataway, N.J., USA) for 1 hour at room temperature, washed again with PBST0.1, and the immunoreactivity of each sample was determined using a biotin-free super sensitive polymer-HRP detection system (Biogenex, San Ramon, Calif., USA), following the procedures described in Lee et al. (2004) and Lo et al. The slides, to which the tissue samples were attached, were counterstained with hematoxylin, mounted with Aquatex (Merck, Dannstadt, Germany), and examined by light microscopy. The percentage of the positively stained cells was determined following a method described in Hall et al., J. Pathol. 172:1-4 (1994).
The cancer targeting activity of PC90 was confirmed by a peptide competition assay, in which the cancer tissue samples were incubated with (1) the synthetic peptide (100 ng/ml) SMDPFLFQLLQL (SEQ ID NO:5) (SP90) and PC90 (10^9 pfu) or (2) the control peptide (100 ng/ml) RLLDTNRPLLPY (SEQ ID NO:6; see Lee et al., Cancer Res. 64:8002-8008, 2004) and PC90. […]

[4] = test system: breast cancer tissue samples (mammary infiltrating ducal carcinoma); experiment: Immunostaining of patient breast cancer biopsy samples with phage; design: species or system human; settings: biopsy samples from twenty patients; anti-M13 immunostaining
Description: as §1

Sequence: EATNSHGSRTMG (SEQ ID NO: 2) [PC65]
- recovery rates of phage from tumor tissues compared with normal organs [1]: much higher

Sequence: QLEFYTQLAHLI (SEQ ID NO: 4) [PC82]
- recovery rates of phage from tumor tissues compared with normal organs [1]: much higher

Sequence: QNIYAGVPMISF (SEQ ID NO: 1) [PC34]
- recovery rates of phage from tumor tissues compared with normal organs [1]: much higher

Sequence: RLLDTNRPLLPY (SEQ ID NO:6) [control peptide, synthetic control peptide, see Lee et al., Cancer Res. 64:8002-8008, 2004, reference compound]
- inhibition of PC90 binding to the tumor tissues (words) [2]: did not exhibit any inhibitory activity
- competition against PC90 for binding to cancer cells in tissue samples [3]: not

Sequence: SMDPFLFQLLQL (SEQ ID NO:5) [SP90, synthetic peptide …]
- inhibition of PC90 binding to the tumor tissues [2]: 97%
- inhibition of PC90 binding to the tumor tissues (words) [2]: significantly inhibited
- competition against PC90 for binding to cancer cells in tissue samples [3]: competed against PC90 for binding to the cancer cells

Sequence: SMDPFLFQLLQL (SEQ ID NO: 5) [PC90]
- patients determined as carrying breast cancer cells [4]: 18 out of the 20
- recovery rates of phage from tumor tissues compared with normal organs [1]: much higher
- targeting of tumor xenografts and normal organs ([1]; i.v., tumor xenografts vs brain): bound to cancer cells in the tumor xenografts but not to normal organs

Sequence: TVSWSTTGRIPL (SEQ ID NO: 3) [PC73]
- recovery rates of phage from tumor tissues compared with normal organs [1]: much higher
